Results published in patent US10815224B2, “Monocyclic heteroaryl substituted compounds” (Bristol-Myers Squibb Company, priority 2016, dated 2020).

Each molecule was assayed against T1, PAR4 (Homo sapiens, UniProt Q96RI0) (assay: PAR4 FLIPR assay: calcium mobilization in PAR4-expressing HEK293 cells).
T1 construct: expressed in transfected cells; host or cells: HEK293 PAR4 Clone 1.2A (BMS Arctic ID 383940)
T1 sequence (Q96RI0 18-385): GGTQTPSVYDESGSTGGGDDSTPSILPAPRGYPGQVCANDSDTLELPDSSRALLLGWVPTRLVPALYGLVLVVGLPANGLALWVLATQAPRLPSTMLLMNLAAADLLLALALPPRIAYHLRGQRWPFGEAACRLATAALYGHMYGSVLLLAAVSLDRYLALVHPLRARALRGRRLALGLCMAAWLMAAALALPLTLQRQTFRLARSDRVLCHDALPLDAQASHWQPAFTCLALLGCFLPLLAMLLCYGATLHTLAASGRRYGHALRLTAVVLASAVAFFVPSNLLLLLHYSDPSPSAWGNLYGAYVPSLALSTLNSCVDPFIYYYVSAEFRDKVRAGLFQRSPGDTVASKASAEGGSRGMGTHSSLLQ
Type: cell-based
Excerpt: The FLIPR assay is an exemplary in vitro assay for measuring the activity of the PAR4 antagonists of the present invention. In this assay, intracellular calcium mobilization is induced in PAR4 expressing cells by a PAR4 agonist and calcium mobilization is monitored.
HEK293 cells stably expressing PAR4 were generated by a standard method of transfection of human PAR4 (F2R23) cDNA expression vector and selected based on PAR4 protein expression or mRNA expression. […] Therefore, the same cells were also used to determine selectivity against PAR1 and agonist activity for both receptors.
FLIPR-based calcium mobilization assay in HEK293 cells was used to measure PAR4 antagonism, agonism, and selectivity against PAR1. […] Counter screens for agonist activity and PAR1 antagonist activity were also performed. […] Cells were plated overnight prior to the experiment in a black 384-well Purecoat Amine clear bottom plate (Becton Dickinson Biosciences, San Jose, Calif.) at 10,000 cells/well in 30 μL growth medium and incubated in a humidified chamber at 37° C. with 5% CO2 overnight. Prior to compound addition, the cell medium was replaced with 40 μL of 1× calcium and magnesium-containing Hank's Balanced Saline Solution (HBSS) (with 20 mM HEPES) and 1:1000 diluted fluorescent calcium indicator (Codex Biosolutions, Gaithersburg, Md.). After a 30 minute incubation period at 37° C., and a further 30 minute incubation and equilibration period at room temperature, 20 μL test compound (diluted in 1×HBSS buffer) was added at various concentrations at 0.17% dimethyl sulfoxide (DMSO) final concentration. Changes in fluorescence intensity were measured using a Functional Drug Screening System (FDSS, Hamamatsu, Japan) to determine agonist activities. The cells were then incubated for 30 minutes at room temperature followed by addition of 20 μL of agonist peptide for antagonist activity measurement. […] Compound potency was derived from 11-point concentration-response curves.

Structure (SMILES) | IC50 [nM]
COc1cnc2c(-c3cc(-c4ccccc4)no3)cc(C)cc2n1 [Example 1, 5-(2-methoxy-7-methylquinoxalin-5-yl)-3-phenylisoxazole] | 80
Cc1cc(-c2cnn(-c3ccccc3)c2)c2ncc(OC(F)F)nc2c1 [Example 2, 2-(difluoromethoxy)-7-methyl-5-(1-phenyl-1H-pyrazol-4-yl)quinoxaline] | 790
Cc1cc(-c2cnc(-c3ccccc3)s2)c2ncc(OC(F)F)nc2c1 [Example 3, 5-(2-(difluoromethoxy)-7-methylquinoxalin-5-yl)-2-phenylthiazole] | 330
Cc1cc(-c2ncc(C)s2)c2ncc(OC(F)F)nc2c1 [Example 4, 2-(2-(difluoromethoxy)-7-methylquinoxalin-5-yl)-5-methylthiazole] | 520
Cc1cc(-c2ccsn2)c2ncc(OC(F)F)nc2c1 [Example 5, 3-(2-(difluoromethoxy)-7-methylquinoxalin-5-yl)isothiazole] | 940
Cc1cc(-c2nc(C)c(-c3cccc(O)c3)s2)c2ncc(OC(F)F)nc2c1 [Example 6, 3-(2-(2-(difluoromethoxy)-7-methylquinoxalin-5-yl)-4-methylthiazol-5-yl)phenol] | 1
Cc1cc(-c2ncc(Cc3ccccc3)s2)c2ncc(OC(F)F)nc2c1 [Example 7, 5-benzyl-2-(2-(difluoromethoxy)-7-methylquinoxalin-5-yl)thiazole] | 95
C=Cc1csc(-c2cc(C)cc3nc(OC(F)F)cnc23)n1 [Example 8, 2-(2-(difluoromethoxy)-7-methylquinoxalin-5 yl)-4-vinylthiazole] | 100
Cc1cc(-c2nc(C)c(-c3ccn[nH]3)s2)c2ncc(OC(F)F)nc2c1 [Example 9, 2-(2-(difluoromethoxy)-7-methylquinoxalin-5-yl)-4-methyl-5-(1H-pyrazol-5-yl)thiazole] | 5
Cc1cc(-c2nc(C3CC3)cs2)c2ncc(OC(F)F)nc2c1 [Example 10, 4-cyclopropyl-2-(2-(difluoromethoxy)-7-methylquinoxalin-5-yl)thiazole] | 300
Cc1cc(-c2nc(C)c(-c3cc(F)ccc3O)s2)c2ncc(OC(F)F)nc2c1 [Example 11, 2-(2-(2-(difluoromethoxy)-7-methylquinoxalin-5-yl)-4-methylthiazol-5-yl)-4-fluoropheno] | 7.5
Cc1cc(-c2nc(C)c(-c3c(O)cccc3F)s2)c2ncc(OC(F)F)nc2c1 [Example 12, 2-(2-(2-(difluoromethoxy)-7-methylquinoxalin-5-yl)-4-methylthiazol-5-yl)-3-fluoropheno] | 8.1
Cc1cc(-c2ncc(N3CCCCC3)s2)c2ncc(OC(F)F)nc2c1 [Example 13, 2-(2-(difluoromethoxy)-7-methylquinoxalin-5-yl)-5-(piperidin-1-yl)thiazole] | 12
Cc1cc(-c2ncc(-c3cncc(O)c3)s2)c2ncc(OC(F)F)nc2c1 [Example 14, 5-(2-(2-(difluoromethoxy)-7-methylquinoxalin-5-yl)thiazol-5-yl)pyridin-3-ol] | 170
Cc1cc(-c2nc(C)c(-c3ccccc3O)s2)c2ncc(OC(F)F)nc2c1 [Example 15, 2-(2-(2-(difluoromethoxy)-7-methylquinoxalin-5-yl)-4-methylthiazol-5-yl)phenol] | 5.9
Cc1cc(-c2ncc(-c3ccccc3C(F)(F)F)s2)c2ncc(OC(F)F)nc2c1 [Example 16, 2-(2-(difluoromethoxy)-7-methylquinoxalin-5-yl)-5-(2-(trifluoromethyl)phenyl)thiazole] | 110
Cc1cc(-c2ncc(C3CCCCC3)s2)c2ncc(OC(F)F)nc2c1 [Example 17, 5-cyclohexyl-2-(2-(difluoromethoxy)-7-methylquinoxalin-5-yl)thiazole] | 75
COCc1cnc2c(-c3ncc(-c4ccccc4)s3)cc(C)cc2n1 [Example 18, 2-(2-(methoxymethyl)-7-methylquinoxalin-5-yl)-5-phenylthiazole] | 6.2
Cc1cc(-c2ncc(-c3cccc(F)c3O)s2)c2ncc(OC(F)F)nc2c1 [Example 19, 2-(2-(2-(difluoromethoxy)-7-methylquinoxalin-5-yl)thiazol-5-yl)-6-fluorophenol] | 5.9

Continued, values first:

IC50 [nM] | Structure (SMILES)
31 | Cc1ccc(O)c(-c2cnc(-c3cc(C)cc4nc(OC(F)F)cnc34)s2)c1 [Example 20, 2-(2-(2-(difluoromethoxy)-7-methylquinoxalin-5-yl)thiazol-5-yl)-4-methylphenol]
8.8 | Cc1cc(-c2ncc(-c3cc(F)ccc3O)s2)c2ncc(OC(F)F)nc2c1 [Example 21, 2-(2-(2-(difluoromethoxy)-7-methylquinoxalin-5-yl)thiazol-5-yl)-4-fluorophenol]
18 | Cc1cc(-c2ncc(-c3cc(Cl)ccc3O)s2)c2ncc(OC(F)F)nc2c1 [Example 22, 2-(2-(2-(difluoromethoxy)-7-methylquinoxalin-5-yl)thiazol-5-yl)-4-chlorophenol]
14 | Cc1cc(-c2ncc(-c3cccc(Cl)c3O)s2)c2ncc(OC(F)F)nc2c1 [Example 23, 2-(2-(2-(difluoromethoxy)-7-methylquinoxalin-5-yl)thiazol-5-yl)-6-chlorophenol]
8.3 | Cc1cc(-c2ncc(-c3c(O)cccc3F)s2)c2ncc(OC(F)F)nc2c1 [Example 24, 2-(2-(2-(difluoromethoxy)-7-methylquinoxalin-5-yl)thiazol-5-yl)-3-fluorophenol]
15 | Cc1cc(-c2ncc(-c3cc(O)ccc3F)s2)c2ncc(OC(F)F)nc2c1 [Example 25, 3-(2-(2-(difluoromethoxy)-7-methylquinoxalin-5-yl)thiazol-5-yl)-4-fluorophenol]
23 | Cc1cc(-c2ncc(-c3cc(O)cc(F)c3)s2)c2ncc(OC(F)F)nc2c1 [Example 26, 3-(2-(2-(difluoromethoxy)-7-methylquinoxalin-5-yl)thiazol-5-yl)-5-fluorophenol]
20 | Cc1cc(-c2ncc(-c3cc(O)ccc3OC(F)(F)F)s2)c2ncc(OC(F)F)nc2c1 [Example 27]
43 | Cc1cc(-c2ncc(-c3ccccc3)s2)c2ncc(OC(F)F)nc2c1 [Example 28, 2-(2-(difluoromethoxy)-7-methylquinoxalin-5-yl)-5-phenyl thiazole]
60 | Cc1cc(-c2ncc(-c3cccnc3)s2)c2ncc(OC(F)F)nc2c1 [Example 29, 2-(2-(difluoromethoxy)-7-methylquinoxalin-5-yl)-5-(pyridin-3-yl)thiazole]
8.8 | Cc1cc(-c2ncc(-c3ccccc3O)s2)c2ncc(OC(F)F)nc2c1 [Example 30, 2-(2-(2-(difluoromethoxy)-7-methylquinoxalin-5-yl)thiazol-5-yl)phenol]
450 | CCNC(=O)c1cnc(-c2cc(C)cc3nc(OC)cnc23)s1 [Example 31, N-ethyl-2-(2-methoxy-7-methylquinoxalin-5-yl)thiazole-5-carboxamide]
2300 | COc1ccc(NC(=O)c2csc(-c3cc(C)cc4nc(OC(F)F)cnc34)n2)cc1 [Example 32, 2-(2-(difluoromethoxy)-7-methylquinoxalin-5-yl)-N-(4-methoxyphenyl)thiazole-4-carboxamide]
570 | Cc1cc(-c2nc(C(=O)N3CCC(CO)CC3)cs2)c2ncc(OC(F)F)nc2c1 [Example 33, (2-(2-(difluoromethoxy)-7-methylquinoxalin-5-yl)thiazol-4-yl)(4-(hydroxymethyl)piperidin-1-yl)methanone]
760 | Cc1cc(-c2nccs2)c2ncc(OC(F)F)nc2c1 [Example 34, 2-(2-(difluoromethoxy)-7-methylquinoxalin-5-yl)thiazole]
25 | Cc1cc(-c2nnc(-c3ccccc3)s2)c2ncc(OC(F)F)nc2c1 [Example 35, 2-(2-(difluoromethoxy)-7-methylquinoxalin-5-yl)-5-phenyl-1,3,4-thiadiazole]
64 | Cc1cc(-c2nc(C)cs2)c2ncc(OC(F)F)nc2c1 [Example 36, 2-(2-(difluoromethoxy)-7-methylquinoxalin-5-yl)-4-methylthiazole]
60 | Cc1cc(-c2ncc(-c3cccc4cc[nH]c34)s2)c2ncc(OC(F)F)nc2c1 [Example 37, 2-(2-(difluoromethoxy)-7-methylquinoxalin-5-yl)-5-(1H-indol-7-yl)thiazole]
